Experiments:
Hepatotoxicity [1] = test: Literature-mined compound from Fourches et al multi-species drug-induced liver injury (DILI) dataset, effect in humans; settings: human
Hepatotoxicity [2] = test: Literature-mined compound from Fourches et al multi-species drug-induced liver injury (DILI) dataset, effect in rodents; settings: rodentia
Hepatotoxicity [3] = test: Literature-mined compound from Fourches et al multi-species drug-induced liver injury (DILI) dataset, effect in non-rodents

Row | SMILES | Hepatotoxicity (Hepatotoxicity [1]) | Hepatotoxicity (Hepatotoxicity [2]) | Hepatotoxicity (Hepatotoxicity [3]) | Hepatotoxicity (Hepatotoxicity [1]; Liver) | Hepatotoxicity (Hepatotoxicity [2]; Liver) | Hepatotoxicity (Hepatotoxicity [3]; Liver)
1 | Cn1c(=O)c2[nH]cnc2n(C)c1=O.O [THEOPHYLLINE] | drug-induced liver injury reported | drug-induced liver injury reported | drug-induced liver injury reported | – | – | –
2 | c1ccc2[nH]c(-c3cscn3)nc2c1 [THIABENDAZOLE] | drug-induced liver injury reported | drug-induced liver injury reported | drug-induced liver injury reported | – | – | –
3 | Cc1ncc(C[n+]2csc(CCO)c2C)c(N)n1 [THIAMINE ION] | – | – | – | drug-induced liver injury reported | drug-induced liver injury reported | no drug-induced liver injury reported
4 | CS(=O)(=O)c1ccc([C@@H](O)[C@@H](CO)NC(=O)C(Cl)Cl)cc1 [THIAMPHENICOL] | drug-induced liver injury reported | drug-induced liver injury reported | no drug-induced liver injury reported | – | – | –
5 | CSC[C@H]1C(=O)SC[C@@H](NC(=O)c2nc3ccccc3cc2O)C(=O)NCC(=O)N(C)[C@H]2SSC[C@@H](C(=O)N1C)N(C)C(=O)CNC(=O)[C@H](NC(=O)c1nc3ccccc3cc1O)CSC(=O)[C@H](CSC)N(C)C2=O [THIOCORALINE] | drug-induced liver injury reported | no drug-induced liver injury reported | no drug-induced liver injury reported | – | – | –
6 | CSc1ccc2c(c1)N(CCC1CCCCN1C)c1ccccc1S2 (stereo unspecified) [THIORIDAZINE] | drug-induced liver injury reported | drug-induced liver injury reported | no drug-induced liver injury reported | – | – | –
7 | OCCSCCCCCCCCCCSCCO [TIADENOL] | no drug-induced liver injury reported | drug-induced liver injury reported | no drug-induced liver injury reported | – | – | –
8 | CC(C(=O)O)c1ccc(C(=O)c2ccccc2)s1 (stereo unspecified) [TIAPROFENIC ACID] | no drug-induced liver injury reported | drug-induced liver injury reported | no drug-induced liver injury reported | – | – | –
9 | NC(=O)c1csc([C@@H]2O[C@H](CO)[C@@H](O)[C@H]2O)n1 [TIAZOFURIN] | no drug-induced liver injury reported | drug-induced liver injury reported | no drug-induced liver injury reported | – | – | –
10 | Clc1ccccc1CN1CCc2sccc2C1 [TICLOPIDINE] | – | – | – | drug-induced liver injury reported | drug-induced liver injury reported | no drug-induced liver injury reported
11 | CC(C)(C)NC[C@H](O)COc1nsnc1N1CCOCC1 [TIMOLOL] | drug-induced liver injury reported | no drug-induced liver injury reported | no drug-induced liver injury reported | – | – | –
12 | CC(S)C(=O)NCC(=O)O (stereo unspecified) [TIOPRONIN] | drug-induced liver injury reported | drug-induced liver injury reported | no drug-induced liver injury reported | – | – | –
13 | Nc1n[n+]([O-])c2ccccc2[n+]1[O-] [TIRAPAZAMINE] | no drug-induced liver injury reported | drug-induced liver injury reported | no drug-induced liver injury reported | – | – | –
14 | O=C(O)Cc1cc(I)c(Oc2ccc(O)c(I)c2)c(I)c1 [TIRATRICOL] | no drug-induced liver injury reported | drug-induced liver injury reported | no drug-induced liver injury reported | – | – | –
15 | Clc1ccc2nsnc2c1NC1=NCCN1 [TIZANIDINE] | – | – | – | drug-induced liver injury reported | no drug-induced liver injury reported | no drug-induced liver injury reported
16 | NC[C@H]1O[C@H](O[C@H]2[C@H](O)[C@@H](O[C@H]3O[C@H](CO)[C@@H](O)[C@H](N)[C@H]3O)[C@H](N)C[C@@H]2N)[C@H](N)C[C@@H]1O [TOBRAMYCIN] | no drug-induced liver injury reported | drug-induced liver injury reported | no drug-induced liver injury reported | – | – | –
17 | CC(=O)Oc1c(C)c(C)c2c(c1C)CCC(C)(CCC[C@H](C)CCC[C@H](C)CCCC(C)C)O2 (stereo partly specified) [TOCOPHEROL ACETATE] | no drug-induced liver injury reported | drug-induced liver injury reported | no drug-induced liver injury reported | – | – | –
18 | Cc1ccc(S(=O)(=O)NC(=O)NN2CCCCCC2)cc1 [TOLAZAMIDE] | drug-induced liver injury reported | drug-induced liver injury reported | no drug-induced liver injury reported | – | – | –
19 | Cc1ccc(C(=O)c2cc(O)c(O)c([N+](=O)[O-])c2)cc1 [TOLCAPONE] | – | – | – | drug-induced liver injury reported | drug-induced liver injury reported | no drug-induced liver injury reported

Row | SMILES | Hepatotoxicity (Hepatotoxicity [1]) | Hepatotoxicity (Hepatotoxicity [2]) | Hepatotoxicity (Hepatotoxicity [3]) | Hepatotoxicity (Hepatotoxicity [1]; Liver) | Hepatotoxicity (Hepatotoxicity [2]; Liver) | Hepatotoxicity (Hepatotoxicity [3]; Liver)
20 | Cc1ccc(C(=O)C(C)CN2CCCCC2)cc1 (stereo unspecified) [TOLPERISONE] | drug-induced liver injury reported | no drug-induced liver injury reported | no drug-induced liver injury reported | – | – | –
21 | Cc1ccc(O)c([C@H](CCN(C(C)C)C(C)C)c2ccccc2)c1 [TOLTERODINE] | drug-induced liver injury reported | no drug-induced liver injury reported | no drug-induced liver injury reported | – | – | –
22 | CC1(C)O[C@@H]2[C@@H](CO[C@@]3(COS(N)(=O)=O)OC(C)(C)O[C@@H]23)O1 [TOPIRAMATE] | drug-induced liver injury reported | no drug-induced liver injury reported | no drug-induced liver injury reported | – | – | –
23 | CN(C)CCOc1ccc(/C(=C(/CCCl)c2ccccc2)c2ccccc2)cc1 [TOREMIFENE] | drug-induced liver injury reported | drug-induced liver injury reported | no drug-induced liver injury reported | – | – | –
24 | COc1cc2c(cc1O)CCN[C@]21CS[C@@H]2c3c(OC(C)=O)c(C)c4c(c3[C@H](COC1=O)N1[C@@H]2[C@H]2c3c(cc(C)c(OC)c3O)C[C@@H]([C@@H]1O)N2C)OCO4 [TRABECTEDIN] | drug-induced liver injury reported | drug-induced liver injury reported | no drug-induced liver injury reported | – | – | –
25 | COc1cccc(C2(O)CCCCC2CN(C)C)c1 (stereo unspecified) [TRAMADOL] | drug-induced liver injury reported | drug-induced liver injury reported | no drug-induced liver injury reported | – | – | –
26 | CCOC(=O)[C@H](CCc1ccccc1)N[C@@H](C)C(=O)N1[C@H](C(=O)O)C[C@H]2CCCC[C@@H]21 [TRANDOLAPRIL] | drug-induced liver injury reported | no drug-induced liver injury reported | no drug-induced liver injury reported | – | – | –
27 | N[C@@H]1C[C@H]1c1ccccc1.N[C@H]1C[C@@H]1c1ccccc1 [TRANYLCYPROMINE] | – | – | – | drug-induced liver injury reported | drug-induced liver injury reported | drug-induced liver injury reported
28 | O=c1n(CCCN2CCN(c3cccc(Cl)c3)CC2)nc2ccccn12 [TRAZODONE] | drug-induced liver injury reported | no drug-induced liver injury reported | no drug-induced liver injury reported | – | – | –
29 | CC1=C(/C=C/C(C)=C/C=C/C(C)=C/C(=O)O)C(C)(C)CCC1 [TRETINOIN] | drug-induced liver injury reported | drug-induced liver injury reported | no drug-induced liver injury reported | – | – | –
30 | CC1(C)O[C@@H]2C[C@H]3[C@@H]4CCC5=CC(=O)C=C[C@]5(C)[C@@]4(F)[C@@H](O)C[C@]3(C)[C@]2(C(=O)CO)O1 [TRIAMCINOLONE ACETONIDE] | no drug-induced liver injury reported | drug-induced liver injury reported | no drug-induced liver injury reported | – | – | –
31 | C[C@]12C=CC(=O)C=C1CC[C@H]1[C@@H]3C[C@@H](O)[C@](O)(C(=O)CO)[C@@]3(C)C[C@H](O)[C@@]12F [TRIAMCINOLONE] | no drug-induced liver injury reported | drug-induced liver injury reported | no drug-induced liver injury reported | – | – | –
32 | COP(=O)(OC)C(O)C(Cl)(Cl)Cl (stereo unspecified) [TRICHLORFON] | no drug-induced liver injury reported | drug-induced liver injury reported | no drug-induced liver injury reported | – | – | –
33 | O=C(O)C(Cl)(Cl)Cl [TRICHLOROACETIC ACID] | no drug-induced liver injury reported | drug-induced liver injury reported | no drug-induced liver injury reported | – | – | –
34 | ClC=C(Cl)Cl [TRICHLOROETHYLENE] | drug-induced liver injury reported | drug-induced liver injury reported | no drug-induced liver injury reported | – | – | –
35 | Oc1cc(Cl)ccc1Oc1ccc(Cl)cc1Cl [TRICLOSAN] | no drug-induced liver injury reported | drug-induced liver injury reported | no drug-induced liver injury reported | – | – | –
36 | COc1ccc(CN2CCNCC2)c(OC)c1OC [TRIMETAZIDINE] | drug-induced liver injury reported | drug-induced liver injury reported | no drug-induced liver injury reported | – | – | –
37 | CN1C(=O)OC(C)(C)C1=O [TRIMETHADIONE] | drug-induced liver injury reported | drug-induced liver injury reported | no drug-induced liver injury reported | – | – | –

Reference: ChEMBL document CHEMBL1697731, “Cheminformatics analysis of assertions mined from literature that describe drug-induced liver injury in different species” (Chem Res Toxicol, 2010)
